Experimental data taken from a melting point compilation (Tetko et al.; mined from patent text by program, amines drawn as free bases though some values may be those of a salt).

Compound | melting point
CC(=O)NC1CCN(CCC2CCOc3ccccc32)CC1 (stereo not drawn) | 126 to 128 °C
CNC(=S)n1nc(NC(C)=O)nc1N | > 300 °C
Cc1ccccc1-c1c(NC(=O)Nc2ccc(F)cc2F)cnc2cc3c(cc12)CCC3 | 252 to 254 °C
COc1ccc2c(c1)CCC1CCN=C21 (stereo not drawn) | 102 to 104 °C
CCOC(=O)C1=Cc2cc(Cl)cc(I)c2OC1C(F)(F)F (stereo not drawn) | 92.1 to 93.9 °C
O=C(Nc1ccccc1)n1[nH]c(C(F)(F)F)cc1=O | 109 to 110 °C
O=C1CCC(c2ccc(-c3cccnc3)cc2)=NN1 | 225 to 226 °C
CC(C)N(C(=O)c1cccc2c1CCc1cc(F)ccc1S2)C(C)C | 149 to 150 °C
C=CCNC(=O)Cc1c[nH]c2ccc(CCS(=O)(=O)NC)cc12 | 123 to 125 °C
CCO/C(C)=C(/C#N)C(N)=S | 201 to 204 °C
Cn1cccc(O)c1=O | 129 to 131 °C
O=C(Nc1ccc(F)cc1)N(O)Cc1ccc(OCc2csc(-c3ccc(C(F)(F)F)cc3)n2)cc1 | 174 to 176 °C
COc1ccccc1N1CCN(CC(=O)Nc2ccc3c(c2NC(=O)c2ccc(C)cc2)C(=O)c2ccccc2C3=O)CC1 | 215 to 216 °C
CC(C)c1ccc(N(Cc2cnn(CCN(C)C)c2)C(=O)C2CCCc3c(O)cccc32)cc1 (stereo not drawn) | 92 °C
O=C(O)CNc1ccco1 | 195 to 199 °C
C=CCNCc1noc(-c2ncn3c2CN(C)C(=O)c2c(Cl)cccc2-3)n1 | 171 to 174 °C
C/C(=N\OCCN1CCOCC1)[C@H]1CC[C@H]2[C@@H]3CCC4=CC(=O)CC[C@]4(C)[C@H]3CC[C@]12C | 107 to 108 °C
CCCCCCCCCCCCCCCCCCC(CO)CC1(C)OCCO1 (stereo not drawn) | 34 to 35 °C
O=C(O)C(O)=CC(=O)c1cc(Cc2ccc(F)cc2)cn(Cc2ccccc2F)c1=O | 182 to 184 °C
CN(C)c1ccc2cc(C#N)oc2c1 | 70 to 71 °C

Compound | melting point
Cc1ncn2c1CN(C)C(=O)c1ccccc1-2 | 184 to 186 °C
Cc1cc(NS(=O)(=O)c2ccc(NCNc3ccc(S(=O)(=O)Nc4cc(C)on4)cc3)cc2)no1 | 180 to 188 °C
Clc1cc(Cl)nc(N2CCSCC2)n1 | 79.5 to 81.5 °C
CC(=O)NC(CC(=O)O)CN(C)C (stereo not drawn) | 202 °C
CCC1(O)CC(=O)OCc2c1cc1n(c2=O)Cc2c-1nc1ccccc1c2C1CCCCC1 (stereo not drawn) | > 250 °C
CC(C)(C)OC(=O)NC1C(=O)N(OCc2ccccc2)C12CCOCC2 (stereo not drawn) | 144 to 146 °C
O=C(Oc1ccccc1)N1CCC(Oc2ccc(F)cc2)CC1 | 98.5 to 100 °C
CCOC(=O)c1c(C(F)(F)F)nc(C(F)F)c(C(=O)OC)c1N1CC1 | 92 to 95 °C
Cc1c(Cc2ccccc2)[nH]c2ccccc2c1=O | 285 to 287 °C
OC(COc1ccc(-c2ccccc2I)cc1)CN1CCCC1 (stereo not drawn) | 72 to 76 °C
C=C(C)C(=O)NCCC(=O)Nc1cc(Cl)c(C)c(Cl)c1O | 150 to 152 °C
N#CCc1cc(Cl)cc(Cl)c1Cl | 60 to 62 °C
CC1OC(C)(C)c2cc(-c3ccc(C#N)n3C(=O)OC(C)(C)C)ccc2N1C(=O)OCC1c2ccccc2-c2ccccc21 (stereo not drawn) | 135 to 136 °C
CN1C(=O)CC[C@]2(C)c3ccc(-c4cccc(C(F)(F)F)c4)cc3CC[C@@H]12 | 64 to 87 °C
O=c1c2ccccc2oc2cc(O)ccc12 | 242 °C
OC(CCl)CNC(c1ccccc1)c1ccccc1 (stereo not drawn) | 66 to 68 °C
COc1cc(C(=O)O)ccc1Cc1cccc2ccc(NC(=O)CC3CCCC3)cc12 | 248 to 250 °C
CC1c2ccccc2-c2ccc(F)cc2N1C(=O)c1ccc(O)cc1 (stereo not drawn) | 134 to 135 °C
O=Cc1cc([N+](=O)[O-])c(O)c(O)c1Cl | 193 to 195 °C
Cn1c(=O)c2conc2n(-c2ccccc2)c1=O | 219 to 221 °C

Now from value to molecule:

melting point | Compound
123 to 125 °C | COc1cc2c(cc1OC)CN(CCCc1ccc(NC(=O)c3cc(OC)c4ccccc4n3)cc1)CC2
82 to 84 °C | COc1nc(C(F)(F)C(F)(F)F)cc(=O)n1-c1cc(C(=O)OC(C)C)c(Cl)cc1F
135 to 136 °C | CC(C)(C)Oc1cccc(C(=O)Nc2ccc(OCCN3CCOCC3)c3ccccc23)c1
110 to 112 °C | CCCOc1ccc(CC(=O)NCC(=O)O)cc1Cl
166 to 169 °C | CC(C)(F)c1cnn2c(-c3ccc(F)c(-c4ccc(F)cc4C#N)c3F)cnc2n1
206 to 209 °C | O=C1OCc2c(-c3noc(C4CC4)n3)ncn2-c2ccccc21
200 to 205 °C | Cc1ccc2c(n1)C(=O)N(c1cccc3ccccc13)C2=O
99 to 100 °C | OCCCc1cn(-c2ccc(C(F)(F)F)cn2)nc1-c1ccccc1
123 to 124 °C | CC1CCCN(Cc2cccc(OCCCCNc3nnc(N)s3)c2)C1 (stereo not drawn)
176 to 178 °C | COc1ccc(-n2nc(Sc3ccc(S(C)=O)cc3)c(C)c(C#N)c2=O)cc1 (stereo not drawn)
254 °C | CCOC(=O)c1cc2c(cn1)[nH]c1ccc([N+](=O)[O-])c(OCc3ccccc3)c12
172 to 173 °C | CCCn1nc2c(N)nc3ccccc3c2c1CCCCCl
187 to 189 °C | CCn1c(-c2c(Cl)cccc2Cl)nc(-c2ccnc(Cl)c2)c1-c1ccc(Cl)cc1
120 to 122 °C | CCOc1c(Br)ccc(C(=O)CC(=O)C2CC2)c1N(C)S(C)(=O)=O
224 to 226 °C | COc1cc2c(c(Br)c1OC(C)=O)Sc1cc(F)ccc1N2
151 to 153 °C | CC(C)(C)COc1c(-c2ccc(S(C)(=O)=O)cc2)cnn(-c2cccc(Cl)c2)c1=O
174 to 175 °C | CC1(C)OC(=O)Nc2ccc(-c3cccc(Br)c3)cc21

melting point | Compound
234 to 238 °C | CC1CC(=O)NN=C1c1ccc(N)c([N+](=O)[O-])c1 (stereo not drawn)
183 to 184 °C | COc1ccc(CN2C(=O)C3(COc4cc5c(C)noc5cc43)c3ccccc32)cc1 (stereo not drawn)
192 °C | Cc1cnc(-c2cc(=S)ss2)cn1
320 to 322 °C | Cc1sc2c(=O)[nH]cnc2c1Br
82.5 to 83.5 °C | CC(O)c1ccc(-c2ccc(Cl)c(Cl)c2)o1 (stereo not drawn)
218 to 220 °C | COc1ccc(-c2cc3cc(OC)cc(C(=O)O)c3o2)cc1
189 to 190 °C | CC(=O)c1ccc(Cc2c(Cl)cc(N3N=CCNC3=O)cc2Cl)cc1
158 to 160 °C | Cn1c(-c2ccc(-c3cccnc3)cc2)cnc1[C@H](Cc1ccccn1)N(C=O)c1cc2cc(Cl)ccc2o1
204 °C | CCc1nc2ccc(C(C(C)C)n3ccnc3)cc2[nH]c1=O (stereo not drawn)
193 °C | Cc1nc2cc(C(c3ccccc3)n3ccnc3)ccc2n(N)c1=O (stereo not drawn)
112 to 113 °C | CCOc1cc(OCc2ccccc2OCc2nc(-c3ccccc3)oc2C)ccc1CCC(=O)O
91 to 92 °C | CCOCc1nc2c(N)nc(C)c(C)c2n1CCOCCCc1nccs1
150 to 152 °C | Cc1nc(-c2ccc(Cn3sccc3=O)cc2)cs1
277 to 280 °C | CCOC(=O)Cn1cc(C(=O)O)c2nc3c(C)cccc3cc2c1=O
190 to 192 °C | CCCCNC(=O)NS(=O)(=O)c1ccc(CCNC(=O)N2Cc3c(Cl)cc(Cl)cc3C2=O)cc1
100 to 104 °C | CCCCCCCCCCCCCCNC(=O)Oc1ccc([N+](=O)[O-])cc1OC(=O)NCCCCCCCCCCCCCC
